{"source": "EPA's ToxValDB 9.5 (doi:10.2903/j.efsa.2013.3213)", "system": "Rattus norvegicus", "details": "chronic", "data": [{"compound": "CCOP(=O)=O.CCOP(=O)=O.CCOP(=O)=O.[Al+3]", "note": "[Fosetyl aluminum]", "values": [{"measurement": "NOAEL", "result": 232, "unit": "mg/kg-day"}]}]}
